{
  "source": "patent US9821072B2",
  "about": "“Activated neurotensin molecules and the uses thereof” (priority 2014, dated 2017)",
  "key": {"[1]": {"biological_target": "T1, human neurotensin receptor type 1 (hNTR-1) (Homo sapiens, UniProt P30989)", "T1 construct": "purchased PerkinElmer; host or cells: CHO cells stably expressing human NTR-1 (membrane homogenates)", "T1 sequence (P30989 whole entry)": "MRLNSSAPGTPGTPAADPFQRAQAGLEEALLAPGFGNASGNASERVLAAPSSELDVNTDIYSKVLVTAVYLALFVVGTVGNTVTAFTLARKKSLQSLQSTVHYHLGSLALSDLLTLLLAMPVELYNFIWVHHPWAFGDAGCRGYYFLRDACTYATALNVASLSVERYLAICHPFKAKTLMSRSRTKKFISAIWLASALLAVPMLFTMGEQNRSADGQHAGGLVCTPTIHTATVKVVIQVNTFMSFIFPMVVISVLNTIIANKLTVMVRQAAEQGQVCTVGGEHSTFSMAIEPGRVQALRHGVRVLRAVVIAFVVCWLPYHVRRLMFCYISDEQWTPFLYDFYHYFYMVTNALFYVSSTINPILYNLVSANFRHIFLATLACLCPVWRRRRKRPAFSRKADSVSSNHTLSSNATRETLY", "experiment": "Competition binding assay with [3H]-neurotensin on human NTR-1 membranes (CHO cells)", "settings": "read-out: NTR-1 binding affinity Ki, Human NTR-1"}, "[2]": {"tested_on": "FVB/N mice with KA-induced status epilepticus", "experiment": "Kainic acid-induced status epilepticus model (body temperature, seizures, neurodegeneration, neuroinflammation, mossy fiber sprouting)", "format": "in vivo, mouse", "description": "In the present case, excitotoxicity was induced by subcutaneous (s.c.) injection of kainic acid (KA), a pro-convulsant agent known to induce a status epilepticus (SE) with excitotoxicity, neuroinflammation, and severe neuronal damage in the hippocampus that can be observed 3 to 7 days after KA administration, and with aberrant axonal sprouting of the dentate gyrus mossy fibers that can be observed at 7-8 weeks after KA administration. We tested the effect of compound XIV on i) epileptic activity (persistence of recurrent seizures), ii) neurodegeneration, neuroinflammation and the resulting brain tissue damage and iii) aberrant axonal sprouting of the dentate gyrus mossy fibers.\nFVB/N adult male mice were injected with a single dose of KA (40-45 mg/kg s.c.) to generate mice with spontaneous recurrent seizures as a hallmark of SE. A negative control group of mice were administered saline 0.9% instead of KA and no further treatment (“SHAM”, n=5). Thirty minutes after the onset of SE, mice received either an intravenous (tail vein) bolus injection of compound XIV at the dose of 4 mg/kg eq. NT (treatment group “SE+HT”, n=5) or saline 0.9% (group “SE”, n=5), or a high dose of diazepam (DZP) at 15 mg/kg), a potent anti-convulsive and anti-epileptic drug (positive control group “SE+DZP”). Body temperature was monitored before KA injection and then every 15 min during 6 hours thereafter, using a rectal probe. During this period, mice were assessed for the occurrence and severity of motor seizures. One week later, animals were sacrificed for histological assessment of neuronal cell death on coronal sections, the hippocampal formation being the main structure in the brain showing tissue damage in this model of excitotoxicity. Another group of animals with the same treatments was sacrificed 8 weeks for histological assessment of aberrant axonal sprouting of the dentate gyrus mossy fibers.\nAdministration of KA (40-45 mg/kg; s.c.) caused characteristic sequential behavioral changes. Immediately after being injected, all animals developed immobility (stage 1). Within 30 minutes after KA injection, automatisms with head nodding, forelimb clonus and circling behavior (stages 2-3) were observed. Then most animals progressed to intermittent (stage 4) followed by continuous (stage 5) rearing with forelimb clonus and falling behavior. […] Only animals attaining at least Racine stage 5 seizures were included in the study. The SE occurred around 2 hours after KA injection, was characterized by stage 5-6 seizures and often associated with hyperthermia (FIG. 13A). Compound XIV administered 30 min after SE onset (SE30) invariably led to transient hypothermia (FIG. 13A), which persisted at least 2 hrs. Mean decreases in body temperature (BT) of −2.5° C. and −3.6° C. were respectively recorded for SE30+ compound XIV animals as compared to SE animals (F=52.34; ***P<0.001). […] SE30+ compound XIV animals presented an average of stage 2 seizures or fewer during the rest of experiment. A subset of animals was administered i.p. a high dose of diazepam (DZP). […] Thus, administration of compound XIV at the dose of 4 mg/kg eq. […] This effect correlated with a −3 to −6° C. decrease in body temperature during ˜2.5 hours.\nUsing the anti-NeuN antibody and Fluoro-jade C that respectively label a neuronspecific nuclear protein and neuronal death, we observed a broad loss of CA1 and CA3 pyramidal cells as well as some dentate hilar neurons in the hippocampus of control SE animals (FIG. 14A, panel B), as compared to SHAM animals (FIG. 14A, panel A).\nSE-induced gliosis involved microglia and astroglial cell types. We used GFAP and Iba1 immunolabeling to estimate the effect of compound XIV on neuroinflammation. In SHAM animals, a basal labeling for GFAP and Iba1 was detected in the HF (FIG. 14A, panel D). In SE animals, a very strong activation of glial cells occurred in all hippocampal layers (FIG. 14, panels E, H). […]"}, "[3]": {"tested_on": "mice", "experiment": "Tolerance / toxicity after i.v. bolus in mice (MTD, LD50)", "format": "in vivo, mouse", "protocol": "NT, which is similar to that measured for compound I and compound II. […] When injected at 20 mg/kg eq. NT in mice, compound XIV was still well-tolerated with no additional safety concerns. […] NT. The Maximal Tolerated Dose (MTD) was 40 mg/kg eq. […] Given that the MED was about 0.1 mg/kg eq. NT, this pharmacodynamic/toxicity profile constitutes an excellent safety prerequisite since i) it prevents potentially lethal overdose due to exacerbated pharmacological hypothermia, and ii) using the intravenous (bolus) mode of administration, the therapeutic window, which is expressed as the fold increase between the MED and MTD, is about 400, with 4-fold security between the dose level eliciting a maximal hypothermic response and that inducing mild/non-lethal toxicity."}, "[4]": {"settings": "administered 30 min after SE onset"}},
  "data": [
    {"compound": "CCC(=O)N[C@@H]1CSSC[C@@H](C(=O)NCCOCCOCCOCCOCCOCCOCCC(=O)N[C@@H](CCCNC(=N)N)C(=O)N[C@@H](CCCNC(=N)N)C(=O)N2CCC[C@H]2C(=O)N[C@@H](Cc2ccc(O)cc2)C(=O)N[C@H](C(=O)N[C@@H](CC(C)C)C(=O)O)[C@@H](C)CC)NC(=O)CN(C)C(=O)[C@H](CCCNC(=N)N)NC(=O)[C@H](CC(C)C)NC(=O)[C@H](CCCNC(=N)N)NC(=O)[C@@H]2CCCCN2C(=O)[C@H](CCSC)NC1=O", "note": "[Compound XIV, Pr-cMPipRLRSarC-PEG6-RRPYIL-OH]", "values": [
      {"measurement": "Ki", "setting": "[1]", "value": "0.22 ± 0.06", "unit": "nM"},
      {"measurement": "decrease in body temperature", "setting": "[2]; 4 mg/kg eq. NT i.v., during ~2.5 hours", "value": "−3 to −6", "unit": "°C"},
      {"measurement": "mean decrease in body temperature compared to SE animals (second value)", "setting": "[2]; 30 min after SE onset, second of two values, presumably 4 mg/kg eq. NT", "value": "−3.6", "unit": "°C"},
      {"measurement": "glial inflammatory response in the hippocampus (GFAP, Iba1) compared with SE animals", "setting": "[2]; [4]", "value": "significantly decreased"},
      {"measurement": "persistence of transient hypothermia", "setting": "[2]; [4]", "value": "at least 2 hrs"},
      {"measurement": "seizure intensity compared with SE group", "setting": "[2]; [4]", "value": "significant decrease of seizures"},
      {"measurement": "seizure stage (Racine) during the rest of the experiment", "setting": "[2]; [4]", "value": "≤ 2", "unit": "stage"},
      {"measurement": "number of mossy fiber terminals innervating the IML (ZnT3) compared with SE animals", "setting": "[2]; administered 30 min after SE onset, 8 weeks after SE", "value": "considerably reduced"},
      {"measurement": "neurodegeneration in the hippocampus (NeuN, Fluoro-jade C) compared with SE animals", "setting": "[2]; administered 30 min after SE onset, one week later", "value": "significantly decreased"},
      {"measurement": "tolerance", "setting": "[3]; 20 mg/kg eq. NT, mice", "value": "well-tolerated"},
      {"measurement": "security between dose eliciting maximal hypothermic response and dose inducing mild/non-lethal toxicity", "setting": "[3]; i.v. bolus", "value": 4, "unit": "fold"},
      {"measurement": "therapeutic window (fold increase between the MED and MTD)", "setting": "[3]; i.v. bolus", "value": "about 400 fold"},
      {"measurement": "Maximal Tolerated Dose (MTD)", "setting": "[3]; i.v. bolus, mice", "value": 40, "unit": "mg/kg eq. NT"},
      {"measurement": "LD50 (Lethal Dose, 50%)", "setting": "[3]; i.v. bolus, mice, not reached", "value": "> 40", "unit": "mg/kg eq. NT"}
    ]}
  ]
}
